Laboratory results published in ChEMBL document CHEMBL3639125, “1,4-oxazepines as BACE1 and/or BACE2 inhibitors” (2014).

Tests used:
[1] = biological target: T1, Beta-secretase 2 (Homo sapiens, UniProt Q9Y5Z0); assay: In summary, a peptide is designed that is cleaved by the protease. The peptide is labelled with dabcyl at the N terminus and Lucifer Yellow at the C-terminus, such that for an intact peptide the Lucifer Yellow fluorescence is quenched by the dabcyl. When the peptide is cut by BACE2, the quenching is removed and a fluorescent signal is generated.
T1 sequence (Q9Y5Z0 whole entry): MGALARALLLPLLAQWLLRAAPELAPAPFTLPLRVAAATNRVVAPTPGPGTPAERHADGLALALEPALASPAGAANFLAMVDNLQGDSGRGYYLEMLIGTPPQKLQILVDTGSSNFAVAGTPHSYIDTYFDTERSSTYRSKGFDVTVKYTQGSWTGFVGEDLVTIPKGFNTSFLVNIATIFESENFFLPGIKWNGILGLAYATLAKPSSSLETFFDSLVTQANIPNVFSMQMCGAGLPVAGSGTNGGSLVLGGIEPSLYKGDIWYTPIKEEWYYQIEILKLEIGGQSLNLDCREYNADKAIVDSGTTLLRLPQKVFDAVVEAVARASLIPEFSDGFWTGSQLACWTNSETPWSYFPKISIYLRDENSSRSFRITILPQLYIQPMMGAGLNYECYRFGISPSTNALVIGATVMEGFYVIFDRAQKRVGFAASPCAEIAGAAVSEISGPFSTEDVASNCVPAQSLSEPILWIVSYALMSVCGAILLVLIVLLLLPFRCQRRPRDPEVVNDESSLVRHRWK

[2] = biological target: Beta-secretase 1 (Homo sapiens, UniProt P56817); assay: Immunofluorescence Resonance Energy Transfer (FRET) Assay: The FRET assay was performed essentially as described in Gruninger-Leitch et al., Journal of Biological Chemistry (2002) 277(7) 4687-93 (Substrate and inhibitor profile of BACE (beta-secretase) and comparison with other mammalian aspartic proteases). In summary, a peptide is designed that is cleaved by the protease. The peptide is labelled with dabcyl at the N terminus and Lucifer Yellow at the C-terminus, such that for an intact peptide the Lucifer Yellow fluorescence is quenched by the dabcyl. When the peptide is cut by BACE2, the quenching is removed and a fluorescent signal is generated. The assay was performed as described in Grueninger et al. 2002 at pH 4.5 using a substrate concentration of 5 μM. A FRET peptide based on the TMEM27 sequence was devised. dabcyl-QTLEFLKIPS-LucY (SEQ ID NO: 1). […] Conversely, BACE1 had insignificant activity against this peptide.
Chain of Beta-secretase 1 (P56817 whole entry): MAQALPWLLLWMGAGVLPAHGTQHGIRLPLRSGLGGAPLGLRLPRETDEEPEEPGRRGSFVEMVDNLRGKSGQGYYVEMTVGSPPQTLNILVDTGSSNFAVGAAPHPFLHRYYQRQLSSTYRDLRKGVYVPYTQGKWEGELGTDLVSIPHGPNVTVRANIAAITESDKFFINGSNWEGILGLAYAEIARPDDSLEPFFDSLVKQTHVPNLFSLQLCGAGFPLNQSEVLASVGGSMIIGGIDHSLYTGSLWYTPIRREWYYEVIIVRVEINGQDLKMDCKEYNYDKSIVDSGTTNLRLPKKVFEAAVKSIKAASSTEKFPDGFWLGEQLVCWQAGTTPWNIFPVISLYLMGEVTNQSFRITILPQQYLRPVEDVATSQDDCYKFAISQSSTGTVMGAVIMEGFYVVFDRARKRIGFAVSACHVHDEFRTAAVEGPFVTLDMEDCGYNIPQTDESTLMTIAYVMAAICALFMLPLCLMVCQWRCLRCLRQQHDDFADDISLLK

SMILES: CC1(C)OCC(N)=N[C@](C)(c2cc(Nc3cncc(C(F)(F)F)c3)ccc2F)C1(F)F
- IC50 [1]: 3.89 µM
- IC50 [2]: 1.9 µM
